Reference: article PMC8742647 (Clinical and Translational Science, 2021)

Key:
[1] = prediction of CLt,human by in vitro–in vivo extrapolation; set-up: species or system humans
[2] = ref Table S1; cited from earlier work
[3] = fraction unbound in plasma, equilibrium dialysis; format: in vitro ADME, humans; conditions: fraction unbound in human plasma
[4] = total clearance after intravenous administration to PXB-mice; format: in vivo, PXB‐mice (chimeric mice with humanized livers); conditions: intravenous cassette dose 0.1 mg/kg, N = 3, noncompartmental analysis
[5] = prediction of CLt,human by physiologically based scaling using PXB-mice; set-up: species or system humans
[6] = total clearance after intravenous administration to rats; format: in vivo, Sprague–Dawley rats; conditions: intravenous cassette dose 0.1 mg/kg, N = 3
[7] = ref Table S1; cited from earlier work; remark: listed apart in the source
[8] = prediction of CLt,human by multispecies allometric scaling, rule of exponent
[9] = fraction unbound in plasma, equilibrium dialysis; format: in vitro ADME, Sprague–Dawley rat; conditions: fraction unbound in rat plasma
[10] = humans; ref Table S1; cited from earlier work
[11] = prediction of CLt,human by single-species allometric scaling from PXB-mice; set-up: species or system humans

Predicted CLt,human, IVIVE ([1]; from in vitro CLint per human hepatocyte, dispersion model): 15.5 mL/min/kg
Fold error (predicted/observed), IVIVE ([1]; predicted/observed CLt,human): 0.41
f u,p, Humans [3]: 0.148
CLt, PXB‐mice [4]: 99.67 mL/min/kg
Predicted CLt,human, PXB‐PBS ([5]; from CLt in PXB-mice, dispersion model, CLint per hepatocyte assumed equal): 16.4 mL/min/kg
Fold error (predicted/observed), PXB‐PBS ([5]; predicted/observed CLt,human): 0.44
CLt, Rats [6]: 42.22 mL/min/kg
Predicted CLt,human, FCIM (from CLt in rats, monkeys and dogs and fu,p ratio rat/human): 7.6 mL/min/kg
Fold error (predicted/observed), FCIM (predicted/observed CLt,human): 0.20
Predicted CLt,human, ROE ([8]; from CLt in rats, monkeys and dogs): 8.6 mL/min/kg
Fold error (predicted/observed), ROE ([8]; predicted/observed CLt,human): 0.23
f u,p, Rats [9]: 0.169
Fold error (predicted/observed), PXB‐SSS ([11]; predicted/observed CLt,human): 0.34
Predicted CLt,human, PXB‐SSS ([11]; scaled from CLt in PXB-mice, exponent 0.75): 12.8 mL/min/kg
Structure (SMILES): CCNC(=O)OC1CCN(c2nncc3cc(OC)c(OC)cc23)CC1 [Carbazeran]
CLt, Monkeys [2]: 87.87 mL/min/kg
CLt, Dogs [7]: 11.5 mL/min/kg
Observed CLt,human [10]: 37.6 mL/min/kg
